Reference: a melting point compilation (Tetko et al.; mined from patent text by program, amines drawn as free bases though some values may be those of a salt)
Residues, ends and D or L forms follow the SMILES beside them. *: point of attachment. Cbz = O=C(OCc1ccccc1)*

Row | SMILES | melting point
1 | Oc1ccc(C2COc3c(ccc(O)c3O)C2)cc1 (centres undefined) | 225 to 226 °C
2 | N#Cc1nn(-c2c(Cl)cc(C(F)(F)F)cc2Cl)c(F)c1S(=O)(=O)C(F)(F)F | 95 to 98 °C
3 | N#CCCOC(=O)C=C1C=C(c2ccccc2)S(=O)(=O)C(c2ccccc2)=C1 | 156 to 157 °C
4 | CNC(=O)N(O)C(C)c1ccc(C#Cc2ccccc2)cc1 (centres undefined) | 138 to 141 °C
5 | COc1ccc([N+](=O)[O-])c(F)c1 | 47 to 49 °C
6 | COCc1cnc2c(NC(=O)c3c(Cl)cccc3Cl)ccc(C)c2c1-n1ccnc1 | 179 to 180 °C
7 | CN1CCN(c2cc(=O)c3ccc4ccccc4c3o2)CC1 | 184 to 185 °C
8 | COc1ccc(-c2cc3cc(F)c(F)cc3[nH]2)cc1NCc1cccc(C#N)c1 | 154 to 155 °C
9 | NS(=O)(=O)c1ccc(-c2noc(-c3cnn4ccc(-c5ccc(C(F)(F)F)cc5)nc34)n2)s1 | 251 °C
10 | O=C(O)Cc1ccccc1OCCn1ccnc1 | 146 to 147 °C
11 | CCCc1c2c(nc3cc(F)c(F)cc13)-c1cc3c(c(=O)n1C2)COC(=O)CC3(O)CC (centres undefined) | 250 °C
12 | O=C(O)CCCc1cc2nc(Cl)ccc2n1S(=O)(=O)c1ccc2c(c1)OC(F)(F)O2 | 216 °C
13 | Fc1ccc(Nc2ncnc3cnc(NCC45CCN(CC4)CC5)nc23)cc1Cl | 221 to 223 °C
14 | O=Cc1ccccc1-c1nnn[nH]1 | 130 °C
15 | CNS(=O)(=O)c1cccc(NC(=O)c2cnn3c(C(F)F)cc(-c4ccc(C(F)(F)F)cc4)nc23)c1 | 255 °C
16 | Nc1cc(N)c(OCC(F)(F)F)cc1OCC(F)(F)F | 109 °C
17 | O=S(=O)(Cc1ccccc1)NCCCCOc1ccc(-n2ccnc2)cc1 | 123 to 124 °C
18 | CN1C(=O)Nc2ccc(-c3cccc(Cl)c3)cc2C1(C)C1CC1 (centres undefined) | 193 to 194 °C
19 | COC(=O)CCCc1cc2cc(Cl)ccc2n1S(=O)(=O)c1ccc2ccccc2c1 | 116 to 118 °C
20 | Cc1cccc(C)c1Oc1ccc2ccc(N)nc2n1 | 218 °C
21 | FC(F)(F)c1ccc(-c2ncc(CCl)s2)cc1 | 55 to 57 °C
22 | Cc1cccc(-c2n[nH]cc2-c2ccc(F)c(-c3cnn(C)c3)c2)n1 | 155 to 156 °C

Row | SMILES | melting point
23 | N=C(N)c1ccc(N2CC(CN3CCN(CCC(=O)O)CC3)OC2=O)cc1 (centres undefined) | 269 °C
24 | COc1ccc(-c2c(Cl)c(CN3C(=O)CCC3=O)nc3sc4c(c23)CCN(Cc2ccccc2)C4)cc1 | 241 to 243 °C
25 | Cn1c(-c2nnc(Cc3ccc(F)cc3)o2)c(O)c(=O)c2ccccc21 | 222 °C
26 | Cc1ccc(Nc2ccccc2C(=O)O)c([N+](=O)[O-])c1 | 209 to 213 °C
27 | COC(=O)Nc1ccc(-c2ncn(-c3ccc(OC(F)(F)C(F)(F)F)cc3)n2)cc1 | 183 to 184 °C
28 | CCOC(=O)Cc1cc2cc(Br)ccc2s1 | 56 to 57 °C
29 | COc1ccc(Nc2c(C#N)cnc3cc(OC)c(OC)cc23)cc1Cl | 278 to 280 °C
30 | Cc1ccc(C(=O)NCc2cccnc2)c(Nc2ccc3cn[nH]c3c2)n1 | 170 to 172 °C
31 | Cn1cncc1C(O)(c1ccc(F)cc1)c1ccc2c(c1)C(c1cccc(Cl)c1)Nc1nnnn1-2 (centres undefined) | 121 °C
32 | Cc1nc2cc(NC(=O)c3cc4cc(F)ccc4n3Cc3cccc(F)c3)cnc2n1C | 274 to 275 °C
33 | Cc1cnc(CCCCNc2ncc(Cc3ccc(C)nc3)c(=O)[nH]2)c(Br)c1 | 148 to 151 °C
34 | O=[N+]([O-])c1cc(Cn2ccnc2)ccc1NCc1cccnc1 | 171 °C
35 | O=C(NCc1ccc(Cl)cc1)c1cn2c(CCCO)cc3cc(CN4CCOCC4)cc(c1=O)c32 | 171 to 174 °C
36 | Fc1cc(F)cc(-c2nc(-c3ccccn3)no2)c1 | 115 to 119 °C
37 | CC(=O)Nc1ccc(F)c(-c2ccncc2)c1F | 148 to 150 °C
38 | N#Cc1ncccc1COc1cccc(F)c1 | 52 to 53 °C
39 | O=c1[nH]ccc2cc(S(=O)(=O)N3CCCNCC3)ccc12 | 266 to 267 °C
40 | CCc1c(-c2ccc(N(C)C)nn2)ssc1=S | 160 °C
41 | O=c1cc(COC2CCCCO2)occ1OCCCCBr (centres undefined) | 71.5 °C
42 | COc1ccc(-c2cc(-c3ccccc3C(=O)O)no2)cc1 | 182 to 185 °C
43 | Oc1ccc(CCc2ccc(O)cc2)cc1 | 199 to 200 °C

Results, then the molecule that gave them:

Row | melting point | SMILES
44 | 78 to 79 °C | CC(C)c1ccc(C2c3cc(N(C)C(=O)CC(C)(C)C)ccc3OC2(C)C)cc1 (centres undefined)
45 | 98 to 101 °C | COC(=O)c1c([N+](=O)[O-])cccc1S(=O)(=O)N(C)CCO
46 | 113 to 114 °C | CCOC(=O)c1c(-c2ccc(F)cc2)oc(-c2ccc(F)cc2)cc1=O
47 | 208 to 214 °C | CCCc1c(COc2ccc(C(=O)c3cccc(-c4nnn[nH]4)c3)cc2)ccc(C(C)=O)c1O
48 | 155 to 157 °C | CCOc1c(N2CCC(Oc3ccc(CC(=O)N4CCN(c5ccccc5C)CC4C(N)=O)c(OC)c3)CC2)c(=O)c1=O (centres undefined)
49 | 156 to 158 °C | COC(=O)/C=C/n1cnc2ccc(OC(C)C)cc2c1=O
50 | 125 to 126 °C | COC(=O)C(CC(C)C)NC(=O)C(Cc1ccccc1)NC(=O)OCc1ccccc1 (stereo not drawn) (Cbz-Phe-Leu-OMe; configuration not given here)
51 | 188 to 190 °C | O=C(O)C(CN1C(=O)CNC1=O)CS(=O)(=O)c1ccc(-c2ccc(Cl)cc2)cc1 (centres undefined)
52 | 142 to 146 °C | CC(C)Oc1ccc(C(=O)N/C(=C\c2ccc(OC(F)(F)F)cc2)C(=O)NCCO)cc1
53 | 185 °C | COc1ccc(C(=O)C2=C(O)C(=O)N(c3nnc(C)s3)C2c2ccc(C#N)cc2)cc1 (centres undefined)
54 | 167 to 168 °C | Cc1cccc(CCC(C)O)c1NC(=O)CC1c2ccccc2Oc2ccccc21 (centres undefined)
55 | 115 to 117 °C | CC(C)(C)OC(=O)N(O)C(=O)CN
56 | 204 to 207 °C | O=C(N[C@H](Cc1ccc(F)cc1)C(=O)N1CCC(O)CC1)c1cc2ccccc2[nH]1
57 | 69 to 74 °C | CCCCCCCCCCCCC1=C(OC(C)=O)C(=O)c2c(C)cccc2C1=O
58 | 141 to 143 °C | COC1=C(OC)C(=Nc2ccccc2)NC1=O
59 | 194 to 195 °C | CC(C)(C)OC(=O)c1ccc(NC2CCc3cc(NC(=O)COCc4ccccc4)c(C#N)cc32)cc1 (centres undefined)
60 | 86.8 to 87 °C | CC1CNCC1NC(=O)OC(C)(C)C (centres undefined)
61 | 190 to 193 °C | CC(C)(C)c1ccc(OCC(O)CN2CCC(N3CCC4(CC3)CSC3=C(O4)c4ccccc4C(=O)C3=O)CC2)cc1 (centres undefined)
62 | 67 °C | CC(C)(C)COC(=O)C#CC1C(C(=O)OC(C#N)c2cccc(Oc3ccccc3)c2)C1(C)C (centres undefined)
63 | 227 to 228 °C | CCNC(=O)c1ccc(N2CCN(Cc3cc(C)c4c(c3)NC(=O)C(C)O4)CC2)c(Cl)c1 (centres undefined)
64 | 84 to 87 °C | COC(=O)C(C)(C)OCc1cc2nc(Cl)ccc2n1S(=O)(=O)c1ccccc1
65 | 218 to 219 °C | COC(=O)c1ccc(N2C(=O)c3ccccc3C2=O)cc1O
66 | 106 to 109 °C | O=C(NC1CCc2c[nH]cc2C1)[C@@H]1CCCN1C(=O)[C@@H](CC1CCCCC1)NS(=O)(=O)Cc1ccccc1 (some centres undefined)
67 | 109 to 110 °C | CC(=O)C(C(C)=O)[C@@H]1NC(=O)[C@@H]1C(C)(C)O
68 | 216 °C | COc1cc(OC)c(C2CCN(C)CC2O)c(O)c1C(C)=O (centres undefined)
69 | 133 °C | CC(C)(Oc1cccc(C(=O)c2ccc(C(F)(F)F)cc2)c1)C(=O)O
